Measurements as given in ChEMBL document CHEMBL3351947, “Isolation of pyrrolocins A-C: cis- and trans-decalin tetramic acid antibiotics from an endophytic fungal-derived pathway” (J Nat Prod, 2014).

Key:
[1] = Cytotoxicity against human CEM-TART cells after 4 days by MTT assay; type: cell-based; settings: 96 h
[2] = tested on: Mycobacterium tuberculosis; experiment: Antimicrobial activity against Mycobacterium tuberculosis H37Ra after 4 days by MTT assay; type: functional, organism-based; settings: 96 h

Structure (SMILES) | IC50 [1] | IC50 [2]
CC1=C[C@H]2C[C@@H](C)CC[C@@H]2[C@@](C)(C(=O)C2=C(O)[C@@H](CO)NC2=O)[C@H]1/C=C/C=C/C[C@@H](C)O | 113 µM | 56.4 µM
CC1=C[C@H]2C[C@@H](C)CC[C@@H]2[C@@](C)(C(=O)C2=C(O)[C@@H](CO)N(C)C2=O)[C@H]1/C=C/C=C/C[C@@H](C)O | 76.6 µM | 26.3 µM
CC1=C[C@@H]2C[C@@H](C)CC[C@@H]2[C@@](C)(C(=O)C2=C(O)[C@@H](CO)NC2=O)[C@@H]1/C=C/C=C/C[C@@H](C)O | 167 µM | 113 µM
CO[C@H]1/C=C/O[C@@]2(C)Oc3c(C)c(O)c4c(O)c(c(/C=N/N5CCN(C)CC5)c(O)c4c3C2=O)NC(=O)/C(C)=C\C=C\[C@H](C)[C@H](O)[C@@H](C)[C@@H](O)[C@@H](C)[C@H](OC(C)=O)[C@@H]1C [RIFAMPIN] | – | 0.152 µM
